pEC50, pIC50: −log10 of the molar value.
Legend:
HCV1b replicon = experiment: HCV Replicon Assay and EC50 Determination (Huh-7 cells, luciferase reporter); format: cell-based; settings: Hepatitis C virus; Huh-7 cell line with HCV1b replicon containing luciferase reporter, 72 hr, triplicate assays
Description: HCV Replicon Assay and EC50 Determination
The antiviral activity of compounds against hepatitis C virus was determined by a hepatitis C virus replicon reporter cell line developed by Bartenschlager (Lohmann et al., Science 1999, 285:110-113). This cell-based assay utilized a liver cell carcinoma (Huh-7) cell line stably transformed with an HCV1b replicon containing a luciferase reporter gene. Varied concentrations of compounds were added to the reporter cell line, and further incubated at 37° C. for 72 hr in DMEM supplemented with 10% FCS. The inhibitory effects of experimental compounds or the reference compound, interferon alpha (INFα), on HCV replication were measured by luciferase activity using the Britelite™ plus luminescence reporter gene kit (Perkin Elmer, Shelton, Conn.). The Britelite plus reagent was added to the 96-well plates containing the HCV reporter cells, and luminescence was measured within 15 min using a Wallac 1450 Microbeta® Trilux liquid scintillation counter. EC50 values were calculated using GraFit 6 and GraphPad Prism 5 from triplicate HCV replicon assays.

[1] = biological target: T1, HCV1b NS5B polymerase delta 21 (Hepatitis C virus genotype 1b, UniProt P26663); experiment: RNA-Dependent RNA HCV NS5B (Polymerase) Assay and IC50 Determination; format: biochemical
T1 construct: purified HCV1b NS5B polymerase delta 21
Procedure, shortened: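 Purified NS5B Δ21 (0.6 μg) with polyA:U16 template, 10 μM UTP plus α-32P UTP in Tris-HCl pH 7.5, 5 mM MgCl2, 0.5% Triton X-100, 60 min at 23°C with varied compound concentrations. Radiolabelled RNA captured on filters, quantified by phosphorimaging; IC50 from triplicate assays.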

T1 sequence (P26663 2420-2989): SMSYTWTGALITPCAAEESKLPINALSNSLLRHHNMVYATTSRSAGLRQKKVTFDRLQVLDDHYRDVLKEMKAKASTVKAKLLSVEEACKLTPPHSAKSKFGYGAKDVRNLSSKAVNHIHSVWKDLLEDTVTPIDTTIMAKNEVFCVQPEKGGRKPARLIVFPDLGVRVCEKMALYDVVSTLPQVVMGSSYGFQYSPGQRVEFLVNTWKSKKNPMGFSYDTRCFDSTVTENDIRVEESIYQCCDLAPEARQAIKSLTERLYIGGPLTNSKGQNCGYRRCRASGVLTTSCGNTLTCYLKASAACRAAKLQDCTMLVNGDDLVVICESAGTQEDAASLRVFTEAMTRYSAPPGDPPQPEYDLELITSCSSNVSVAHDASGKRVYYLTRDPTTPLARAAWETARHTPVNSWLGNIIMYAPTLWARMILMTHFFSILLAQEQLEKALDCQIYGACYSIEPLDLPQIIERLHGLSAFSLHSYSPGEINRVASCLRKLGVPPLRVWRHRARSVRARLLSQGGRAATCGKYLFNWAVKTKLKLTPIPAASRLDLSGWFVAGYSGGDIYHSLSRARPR

Row | SMILES | pEC50 (HCV1b replicon) | pIC50 [1]
1 | CC1CC=C(C2=C(c3cc(-c4ccccc4)sc3C(=O)O)CCN(C)C2)CC1 (stereo not shown) [Example 109, 3-[1-Methyl-5-(4-methyl-cyclohex-1-enyl)-1,2,3,6-tetrahydro-pyridin-4-yl]-5-phenyl-thiophene-2-carboxylic acid] | < 5.00 | > 5.52
2 | CC1CCC(C2=C(c3cc(-c4ccc(-c5cc6ncccn6n5)cc4)sc3C(=O)O)CCN(C)C2)CC1 (stereo not shown) [Example 005, 3-[1-Methyl-5-(4-methyl-cyclohexyl)-1,2,3,6-tetrahydro-pyridin-4-yl]-5-(4-pyrazolo[1,5-a]pyrimidin-2-yl-phenyl)-thiophene-2-carboxylic acid] | > 5.52 | > 5.52
3 | Cc1cc(C)n2nc(CN3CCC(c4cc(-c5ccc(NC(=O)c6cscn6)cc5)sc4C(=O)O)=C(C4CCC(C)CC4)C3)nc2n1 (stereo not shown) [Example 130, 3-[1-(5,7-Dimethyl-[1,2,4]triazolo[1,5-a]pyrimidin-2-ylmethyl)-5-(4-methyl-cyclohexyl)-1,2,3,6-tetrahydro-pyridin-4-yl]-5-{4-[(thiazole-4-carbonyl)-amino]-phenyl}-thiophene-2-carboxylic acid] | > 5.52 | > 5.52
4 | CC1CCC(C2=C(c3cc(-c4ccccc4)sc3C(=O)O)CCN(C)C2)CC1 (stereo not shown) [Example 001, 3-[1-Methyl-5-(4-methyl-cyclohexyl)-1,2,3,6-tetrahydro-pyridin-4-yl]-5-phenyl-thiophene-2-carboxylic acid] | > 5.52 | > 5.52
5 | CC1CCC(C2=C(c3cc(C#CC(C)(C)C)sc3C(=O)O)CCN(C)C2)CC1 (stereo not shown) [Example 003, 5-(3,3-Dimethyl-but-1-ynyl)-3-[1-methyl-5-(4-methyl-cyclohexyl)-1,2,3,6-tetrahydro-pyridin-4-yl]-thiophene-2-carboxylic acid] | > 5.52 | > 5.52
6 | CC1CCC(C2=C(c3cc(-c4ccc(NC(=O)c5cscn5)cc4)sc3C(=O)O)CCN(C)C2)CC1 (stereo not shown) [Example 013, 3-[1-Methyl-5-(4-methyl-cyclohexyl)-1,2,3,6-tetrahydro-pyridin-4-yl]-5-{4-[(thiazole-4-carbonyl)-amino]-phenyl}-thiophene-2-carboxylic acid] | > 5.52 | > 5.52
7 | CCCC(C)C#Cc1cc(C2=C(C3CCC(C)CC3)CCN(C)C2)c(C(=O)O)s1 (stereo not shown) [Example 177, 5-(3-Methyl-hex-1-ynyl)-3-[1-methyl-4-(4-methyl-cyclohexyl)-1,2,5,6-tetrahydro-pyridin-3-yl]-thiophene-2-carboxylic acid] |  | 5.00 to 5.52
8 | CC1CCC(C2=C(c3cc(C#CC(C)(C)C)sc3C(=O)O)CCN(Cc3ccccn3)C2)CC1 (stereo not shown) [Example 127, 5-(3,3-Dimethyl-but-1-ynyl)-3-[5-(4-methyl-cyclohexyl)-1-pyridin-2-ylmethyl-1,2,3,6-tetrahydro-pyridin-4-yl]-thiophene-2-carboxylic acid] |  | > 5.52
9 | CCN1CCC(c2cc(C#CCC(C)C)sc2C(=O)O)=C(C2CCC(C)CC2)C1 (stereo not shown) [Example 029, 3-[1-Ethyl-5-(4-methyl-cyclohexyl)-1,2,3,6-tetrahydro-pyridin-4-yl]-5-(4-methyl-pent-1-ynyl)-thiophene-2-carboxylic acid] |  | > 5.52
10 | CCN1CCC(c2cc(-c3ccc(NC(=O)c4csc(C)n4)cc3)sc2C(=O)O)=C(C2CCC(C)CC2)C1 (stereo not shown) [Example 048, 3-[1-Ethyl-5-(4-methyl-cyclohexyl)-1,2,3,6-tetrahydro-pyridin-4-yl]-5-{4-[(2-methyl-thiazole-4-carbonyl)-amino]-phenyl}-thiophene-2-carboxylic acid] |  | > 5.52
11 | CC1CCC(C2=C(c3cc(-c4ccc(-c5cc6ncccn6n5)cc4)sc3C(=O)O)CN(C)CC2)CC1 (stereo not shown) [Example 169, 3-[1-Methyl-4-(4-methyl-cyclohexyl)-1,2,5,6-tetrahydro-pyridin-3-yl]-5-(4-pyrazolo[1,5-a]pyrimidin-2-yl-phenyl)-thiophene-2-carboxylic acid] |  | > 5.52
12 | CC1CCC(C2=C(c3cc(-c4ccccc4)sc3C(=O)O)CCN(C(=O)OC(C)(C)C)C2)CC1 (stereo not shown) [Example 037, 4-(2-Carboxy-5-phenyl-thiophen-3-yl)-5-(4-methyl-cyclohexyl)-3,6-dihydro-2H-pyridine-1-carboxylic acid tert-butyl ester] |  | < 5.00
13 | CCN1CCC(c2cc(-c3ccc(NC(=O)c4cc(C)on4)cc3)sc2C(=O)O)=C(C2CCC(C)CC2)C1 (stereo not shown) [Example 053, 3-[1-Ethyl-5-(4-methyl-cyclohexyl)-1,2,3,6-tetrahydro-pyridin-4-yl]-5-{4-[(5-methyl-isoxazole-3-carbonyl)-amino]-phenyl}-thiophene-2-carboxylic acid] |  | 5.00 to 5.52
